Measurements published in PubChem BioAssay (NCI).
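Five compound concentrations were applied to cells in 96-well plates for 48 hours; endpoints were derived by simple linear interpolation of the resulting dose-response curve. GI50 = concentration required for 50% inhibition of growth. At the TGI there is no net growth.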 Active and inactive are the calls of the source. Cut-off read from the data, not from the text of the source: active = GI50 below about 0.43 µM; inactive = the rest.

Columns and labels:
Experiment in all cases: inhibition of tumour cell growth, NCI panel, 48 h
[1] = tested on: OVCAR-5 ovarian
[2] = tested on: SF-268 CNS
[3] = tested on: IGROV1 ovarian
[4] = tested on: SNB-75 CNS
[5] = tested on: DU-145 prostate
[6] = tested on: NCI-H522 lung
[7] = tested on: M14 melanoma
[8] = tested on: HCC-2998 colon
[9] = tested on: MOLT-4 leukemia
[10] = tested on: TK-10 renal
[11] = tested on: COLO 205 colon
[12] = tested on: SK-MEL-2 melanoma
[13] = tested on: SN12C renal
[14] = tested on: SF-539 CNS
[15] = tested on: SF-295 CNS
[16] = tested on: SW-620 colon
[17] = tested on: OVCAR-8 ovarian
[18] = tested on: OVCAR-3 ovarian
[19] = tested on: KM12 colon
[20] = tested on: ACHN renal
[21] = tested on: CAKI-1 renal
[22] = tested on: UACC-257 melanoma
[23] = tested on: LOX IMVI melanoma
[24] = tested on: RPMI-8226 leukemia
[25] = tested on: HOP-62 NSCLC
[26] = tested on: UO-31 renal
[27] = tested on: NCI-H23 lung
[28] = tested on: MDA-MB-435
[29] = tested on: EKVX NSCLC
[30] = tested on: NCI/ADR-RES ovarian
[31] = tested on: NCI-H460 lung
[32] = tested on: MCF7 breast
[33] = tested on: 786-0 renal
[34] = tested on: A549 NSCLC
[35] = tested on: HS 578T breast
[36] = tested on: SNB-19 CNS
[37] = tested on: HCT-116 colon
[38] = tested on: T-47D breast
[39] = tested on: PC-3 prostate
[40] = tested on: SR leukemia
[41] = tested on: K-562 leukemia
[42] = tested on: SK-MEL-28 melanoma
[43] = tested on: CCRF-CEM leukemia
[44] = tested on: MDA-N
[45] = tested on: SK-MEL-5 melanoma
[46] = tested on: HL-60(TB) leukemia
[47] = tested on: HOP-92 NSCLC
[48] = tested on: MDA-MB-231 breast
[49] = tested on: SK-OV-3 ovarian
[50] = tested on: OVCAR-4 ovarian
[51] = tested on: RXF 393 renal
[52] = tested on: MALME-3M melanoma
[53] = tested on: HT29 colon
[54] = tested on: NCI-H226 lung
[55] = tested on: A498 renal
[56] = tested on: U251 CNS
[57] = tested on: UACC-62 melanoma
[58] = tested on: HCT-15 colon

Question: For `C=C1C(=O)[C@@]23CC[C@@H]4[C@@]5(C)CCC[C@@]4(OC5=O)C2(C)CC[C@]1(OC)C3` (some centres not stated), which TGI [1] is on record?
Answer: 3.69 µM

Question: And the TGI [2]?
Answer: 7.2 µM

Question: What about the TGI [3] of the same molecule?
Answer: 4.76 µM

Question: And the TGI [4]?
Answer: 3.07 µM

Question: What about the TGI [5] of the same molecule?
Answer: 18 µM

Question: And the TGI [6]?
Answer: 2.36 µM

Question: What about the TGI [7] of the same molecule?
Answer: 4.25 µM

Question: And the TGI [8]?
Answer: 1.37 µM

Question: What about the TGI [9] of the same molecule?
Answer: 1.98 µM

Question: What about the TGI [10] of the same molecule?
Answer: 3.18 µM

Question: What about the TGI [11] of the same molecule?
Answer: 5.64 µM

Question: What about the TGI [12] of the same molecule?
Answer: 2.58 µM

Question: And the TGI [13]?
Answer: 4.92 µM

Question: What about the TGI [14] of the same molecule?
Answer: 3.21 µM

Question: And the TGI [15]?
Answer: 13.4 µM

Question: What about the TGI [16] of the same molecule?
Answer: 3.23 µM

Question: What about the TGI [17] of the same molecule?
Answer: 4 µM

Question: What about the TGI [18] of the same molecule?
Answer: 2.34 µM

Question: What about the TGI [19] of the same molecule?
Answer: 6.85 µM

Question: And the TGI [20]?
Answer: 3.98 µM

Question: What about the TGI [21] of the same molecule?
Answer: 3.41 µM

Question: And the TGI [22]?
Answer: 3.81 µM

Question: And the TGI [23]?
Answer: 1.19 µM

Question: And the TGI [24]?
Answer: 0.864 µM

Question: What about the TGI [25] of the same molecule?
Answer: 4.56 µM

Question: What about the TGI [26] of the same molecule?
Answer: 3.19 µM

Question: What about the TGI [27] of the same molecule?
Answer: 5.07 µM

Question: And the TGI [28]?
Answer: 3.22 µM

Question: What about the TGI [29] of the same molecule?
Answer: 21.8 µM

Question: And the TGI [30]?
Answer: 6.59 µM

Question: And the TGI [31]?
Answer: 6.92 µM

Question: And the TGI [32]?
Answer: 1.22 µM

Question: And the TGI [33]?
Answer: 1.17 µM

Question: What about the TGI [34] of the same molecule?
Answer: 12.7 µM

Question: And the TGI [35]?
Answer: 6.69 µM

Question: And the TGI [36]?
Answer: 3.63 µM

Question: What about the TGI [37] of the same molecule?
Answer: 1.88 µM

Question: And the TGI [38]?
Answer: 4.6 µM

Question: And the TGI [39]?
Answer: 2.44 µM

Question: And the TGI [40]?
Answer: 1.46 µM

Question: What about the TGI [41] of the same molecule?
Answer: 1.24 µM

Question: And the TGI [42]?
Answer: 3.66 µM

Question: What about the TGI [43] of the same molecule?
Answer: 0.436 µM

Question: What about the TGI [44] of the same molecule?
Answer: 2.02 µM

Question: What about the TGI [45] of the same molecule?
Answer: 3.39 µM

Question: How did the TGI [46] turn out when `O=C(O)CN1CCN(CC(=O)O)CCN(CC(=O)O)CC1` was run?
Answer: 4.74 µM

Question: What about the outcome [47] of the same molecule?
Answer: inactive

Question: And the outcome [1]?
Answer: inactive

Question: What about the outcome [2] of the same molecule?
Answer: inactive

Question: What about the GI50 [3] of the same molecule?
Answer: 7100 µM

Question: What about the outcome [4] of the same molecule?
Answer: inactive

Question: And the outcome [5]?
Answer: inactive

Question: And the GI50 [6]?
Answer: 8060 µM

Question: And the TGI [6]?
Answer: > 70.8 µM

Question: What about the GI50 [7] of the same molecule?
Answer: 10500 µM

Question: And the outcome [48]?
Answer: inactive

Question: And the outcome [9]?
Answer: inactive

Question: And the GI50 [10]?
Answer: 33100 µM

Question: And the GI50 [11]?
Answer: 4770 µM

Question: And the TGI [11]?
Answer: 9.69 µM

Question: What about the GI50 [12] of the same molecule?
Answer: 16700 µM

Question: What about the outcome [13] of the same molecule?
Answer: inactive

Question: And the outcome [14]?
Answer: inactive

Question: And the outcome [49]?
Answer: inactive

Question: What about the outcome [15] of the same molecule?
Answer: inactive

Question: What about the outcome [16] of the same molecule?
Answer: inactive

Question: What about the GI50 [17] of the same molecule?
Answer: 22300 µM

Question: What about the TGI [17] of the same molecule?
Answer: > 24.1 µM

Question: What about the GI50 [19] of the same molecule?
Answer: 5450 µM

Question: And the outcome [50]?
Answer: inactive

Question: And the outcome [20]?
Answer: inactive

Question: What about the GI50 [22] of the same molecule?
Answer: 71500 µM

Question: What about the outcome [23] of the same molecule?
Answer: inactive

Question: And the outcome [25]?
Answer: inactive

Question: And the outcome [26]?
Answer: inactive

Question: What about the GI50 [51] of the same molecule?
Answer: 9940 µM

Question: What about the outcome [52] of the same molecule?
Answer: inactive

Question: And the GI50 [27]?
Answer: 76100 µM

Question: And the outcome [28]?
Answer: inactive

Question: What about the outcome [29] of the same molecule?
Answer: inactive

Question: What about the TGI [30] of the same molecule?
Answer: > 30.9 µM

Question: What about the outcome [30] of the same molecule?
Answer: inactive

Question: And the GI50 [31]?
Answer: 4560 µM

Question: And the GI50 [53]?
Answer: 4400 µM

Question: And the GI50 [32]?
Answer: 6360 µM

Question: And the outcome [33]?
Answer: inactive

Question: And the outcome [54]?
Answer: inactive

Question: And the GI50 [34]?
Answer: 3550 µM

Question: And the TGI [34]?
Answer: > 25.4 µM

Question: And the outcome [35]?
Answer: inactive

Question: And the outcome [36]?
Answer: inactive

Question: And the GI50 [37]?
Answer: 6750 µM

Question: What about the outcome [38] of the same molecule?
Answer: inactive

Question: What about the GI50 [39] of the same molecule?
Answer: 9040 µM

Question: And the TGI [55]?
Answer: > 75.8 µM

Question: What about the outcome [55] of the same molecule?
Answer: inactive

Question: What about the TGI [41] of the same molecule?
Answer: > 21.9 µM

Question: What about the outcome [56] of the same molecule?
Answer: inactive

Question: What about the outcome [42] of the same molecule?
Answer: inactive

Question: What about the TGI [43] of the same molecule?
Answer: > 59 µM

Question: What about the outcome [43] of the same molecule?
Answer: inactive

Question: And the GI50 [57]?
Answer: 8700 µM

Question: And the GI50 [44]?
Answer: 18500 µM

Question: What about the GI50 [58] of the same molecule?
Answer: 9440 µM

Question: And the GI50 [45]?
Answer: 6790 µM

Question: And the TGI [45]?
Answer: > 23.2 µM

Question: What does the source list for `CC(C)(NO)/C(=N\O)c1ccco1`?
Answer: TGI [47]: > 100 µM; TGI [1]: > 100 µM; TGI [2]: > 100 µM; TGI [3]: > 100 µM; TGI [5]: > 100 µM; TGI [7]: > 100 µM; TGI [8]: > 100 µM; TGI [48]: > 100 µM; TGI [9]: 40.8 µM; TGI [10]: > 100 µM; TGI [11]: > 100 µM; TGI [12]: > 100 µM; TGI [13]: > 100 µM; TGI [14]: > 100 µM; TGI [49]: > 100 µM; TGI [15]: > 100 µM; TGI [16]: > 100 µM; TGI [17]: > 100 µM; TGI [18]: > 100 µM; TGI [19]: > 100 µM; TGI [50]: > 100 µM; TGI [20]: > 100 µM; TGI [21]: > 100 µM; TGI [22]: > 100 µM; TGI [23]: > 100 µM; TGI [24]: > 100 µM; TGI [25]: > 100 µM; TGI [26]: > 100 µM; TGI [51]: > 100 µM; TGI [52]: > 100 µM; TGI [27]: > 100 µM; TGI [28]: > 100 µM; TGI [29]: > 100 µM; TGI [30]: > 100 µM; TGI [31]: > 100 µM; TGI [53]: > 100 µM; TGI [32]: > 100 µM; TGI [33]: > 100 µM; TGI [54]: > 100 µM; TGI [34]: > 100 µM; TGI [35]: > 100 µM; TGI [36]: > 100 µM; TGI [37]: > 100 µM; TGI [38]: > 100 µM; TGI [39]: > 100 µM; TGI [56]: > 100 µM; TGI [42]: > 100 µM; TGI [57]: > 100 µM; TGI [44]: > 100 µM; TGI [58]: > 100 µM; TGI [45]: > 100 µM
